We go through one compound from patent US8609725B2, “Method of using beta-hydroxy-beta-methylbutyrate for reducing tumor growth rate” (Abbott Laboratories, priority 2004, dated 2013).

Each structure is given as a SMILES string.

The test system of experiment [1] is mice bearing the MAC16 tumor. The experiment can be described thus: Body composition analysis of mice bearing the MAC16 tumor. Format: in vivo. An excerpt:
Materials and animals were obtained as per Example 1.

Experiment [2] deals with mice bearing the MAC16 tumor. The experiment can be described thus: Weight loss, food and water intake in mice bearing the MAC16 tumor. Format: in vivo, NMRI mice. To be noted: doses of HMB greater than 0.125 g/kg, p.o. by gavage daily. From the text:
This study evaluates the effect of HMB, in comparison with EPA or combination, on weight loss induced by the MAC16 tumor and the mechanisms involved. […] Pure strain male NMRI mice (average weight 25 g) were obtained from our own inbred colony and were transplanted with fragments of the MAC16 tumor s.c. into the flank by means of a trochar, selecting from donor animals with established weight loss as described in Bibby, M. C. et al. Characterization of a transplantable adenocarcinoma of the mouse colon producing cachexia in recipient animals. J. Natl. Cancer Inst., 78: 539-546, 1987. Transplanted animals were fed a rat and mouse breeding diet (Special Diet Services, Witham, United Kingdom) and water ad libitum, and weight loss was evident 10-12 days after tumor implantation. Animals just prior to the development of weight loss were randomized to receive daily either EPA (in olive oil), HMB (in PBS) or the combination as described in the figure legends administered p.o. by gavage, while control animals received either olive oil or PBS. EPA (98% as free acid) was purchased from Biomol Research Laboratories Inc., PA, USA. HMB (as the calcium salt) was obtained from Abbott Laboratories, Columbus, Ohio, USA. All groups contained a minimum of 6 mice. Tumor volume, body weight and food and water intake were monitored daily. […]

Experiment [3] relates to C2C12 myotubes. Briefly: PIF-induced total protein degradation in C2C12 myotubes. Format: cell-based, murine. The method, then: C2C12 myotubes were routinely passaged in DMEM supplemented with 10% FCS, glutamine and 1% penicillin-streptomycin under an atmosphere of 10% CO2 in air at 37 °C. Myotubes were formed by allowing confluent cultures to differentiate in DMEM containing 2% HS, with medium changes every 2 days.
PIF was purified from solid MAC16 tumors (Todorov, P. et al. Characterization of a cancer cachectic factor. Nature, 379: 739-742, 1996.) excised from mice with a weight loss of 20 to 25%. Tumors were homogenised in 10 mM Tris-HCl, pH 8.0, containing 0.5 mM phenylmethylsulfonyl fluoride, 0.5 mM EGTA and 1 mM dithiothreitol at a concentration of 5 ml/g tumor. […]
Myotubes in six-well multidishes were labeled with L-[2, 6^−3H] phenylalanine (0.67 mCi/mmole) for 24 h in 2 ml DMEM containing 2% HS. They were then washed three times in PBS followed by a 2 h incubation at 37° C. in DMEM without phenol red until no more radioactivity appeared in the supernatant. These myotubes were then further incubated for 24 h in the presence of PIF, with and without EPA or HMB, in fresh DMEM without phenol red, to prevent quenching of counts, and in the presence of 2 mM cold phenylalanine to prevent reincorporation of radioactivity. The amount of radioactivity released into the medium was expressed as a percentage of control cultures not exposed to PIF to determine total protein degradation.

`CC(C)(O)CC(=O)O` [HMB, beta-hydroxy-beta-methylbutyric acid]: the “Fat (%)” value in experiment [1] (HMB 0.125 g/kg for 5 days) came out at 3.3 ± 1.6%; in experiment [1] (HMB 0.25 g/kg for 5 days), 4.4 ± 1.3%; in experiment [1] (HMB 0.5 g/kg for 5 days), 3.8 ± 1.2%. The “Nonfat (%)” value in experiment [1] (HMB 0.125 g/kg for 5 days) was found to be 31.2 ± 1.5 %; in experiment [1] (HMB 0.25 g/kg for 5 days) it was 29.2 ± 1.9 %; in experiment [1] (HMB 0.5 g/kg for 5 days) it was 29.0 ± 1.4 %. Also, the “Water (%)” value in experiment [1] (HMB 0.125 g/kg for 5 days) turned out to be 65.5 ± 0.9%; in experiment [1] (HMB 0.25 g/kg for 5 days), 66.5 ± 2.2%; in experiment [1] (HMB 0.5 g/kg for 5 days) it was 67.2 ± 2.3%. Besides, the adipose tissue entry in experiment [1] (HMB for 5 days, in words) is recorded as “without an effect”. The nonfat carcass mass result in experiment [1] (HMB for 5 days, in words) is given as “significant increase”. In experiment [2], the weight loss result was “significant reduction in weight loss”. Also, the “attenuation of PIF induced protein degradation” value in experiment [3] (25 μM HMB, at low, but not at high concentrations of PIF) is “some attenuation”; in experiment [3] (50 μM, 24 h after addition of PIF), “equally effective”.
